Reference: patent US4460576A, “Peptide and hormone agent containing the same as effective ingredient” (Kaken Pharmaceutical Co., Ltd., priority 1982, dated 1984)
Where “and” joins values, the source holds several entries; their conditions need not be identical. Equal values may be shown once. Positions of bridges follow the written chain, without caps; N, C: chain ends. Residues, ends and D or L forms follow the SMILES beside them. No end group written: not given here.

Columns and labels:
[1] = R. Guillemin et al, Science, 218, p.585 (1982); cited from earlier work
Male Wistar rats = test: GH-releasing activity of [Gln^16 ]--GH--RH in vivo, plasma GH by RIA (Pharmacological Test Example 3); set-up: species or system rat; conditions: for GH Concentration, individual rats / GH Concentration Mean ± S.E.: plasma; for GH Concentration, individual rats: rats G, H, I, J, K, L in order; for GH Concentration Mean ± S.E.: procedure of Test Example 2, six rats G to L
Procedure: Male Wistar rats of 10 weeks old were used. The rats were anesthetized with pentobarbital administered intraperitoneally (i.p.) in a dosage of 50 mg./kg. and fixed. Silastic tube (Dow Corning 0.020 in I.D., by 0.037 in O.D.) cannula of 3.5 cm was inserted to the heart side of right jugular vein in the rat. In the rat with chronic vein-cannula in plant, the other side of the cannula was taken out by 3 cm. from backside of neck and fixed on outer layer of skin.
From the cannula was injected 0.5 ml. of 20 units/ml. heparin, and then the cannula was pluged with a stainless-steel wire stopper. The rats were subjected to injecting of GH--RH and blood-gathering under non-anesthetic condition on the next day. Chlorpromazine hydrochloride was administered i.p. before 4 hrs. of injection in a dosage of 2 mg./kg. Four rats (D to G) received injection from the cannula of 440 μg./kg. of GH--RH obtained from salmon in Example 1. Three rats (A to C) received physiological saline as a control.
From each rat, 0.5 ml. of blood was gathered before 15 minutes of injection and after 15, 30, 60, 120 and 180 minutes of injection.
The gathered blood was centrifuged at 2,000×g for 10 minutes. For measuring GH-releasing activity, the supernatant (plasma) was assayed by means of a radio immuno assay (hereinafter referred to as "RIA") according to a double antibody method (see C. A. Birge et al Endocrinology 81, p.195 (1967)). The RIA of rat GH was carried out by employing NIH kit. The results are shown in Table 4 and FIG. 8 in which symbols A to G described in Table 4 correspond to those described in FIG. 8.
The procedure of Pharmacological Test Example 2 was repeated except that six rats were used, respectively, as to the group receiving [Gln^16 ]--GH--RH and as to the group receiving physiological saline and the blood-gathering was carried out before 15 minutes of injection and after 15, 30, 60, 120, 180, 240 and 300 minutes, respectively, of injection.

[2] = system: anterior pituitaries obtained from male Wistar Rats; test: GH release from pieces of rat anterior pituitaries on a column, radioimmunoassay (Pharmacological Test Example 1); format: cell-based
Procedure: Small pieces of anterior pituitaries obtained from male Wistar Rats were placed on top of a column being an injection cylinder having one […] diameter packed with 0.3 to 0.5 ml. of Sephadex G 25 equilibrated with a Krebs-Ringer buffer solution containing 0.1% calf serum at a flow rate of 0.5 ml./min. On the column were chromatographed 1 ml. of a control solution (a Klebs-Ringer buffer solution), 1 ml. of 2 μg./ml. solution of TRH and 1 ml. of 2 μg./ml. solution of the GH--RH obtained in Example 1 in that order. The column effluent was collected in 1 ml.-fractions and each fraction was analyzed by means of a radioimmunoassay with an anti-rat GH antibody (NIH standard) to determine an amount of the released rat GH in the assay.

Compound: hpGRF: GH-releasing factor isolated from human pancreatic cancer (YADAIFTNSYRKVLGQLSARKLLQDIMSRQQGESNQERGARARL; ends and bridges not checked; UniProt P01286 32-75, looked up)
- time after injection at which increase of GH is shown [1]: 5 min

Compound: CSCC[C@@H]1NC(=O)[C@@H](NC(=O)[C@H](CCCNC(=N)N)NC(=O)[C@H](CCSC)NC(=O)[C@@H](NC(=O)[C@@H](N)CC(=O)O)[C@@H](C)O)CSSC[C@@H](C(=O)N[C@@H](Cc2c[nH]c3ccccc23)C(=O)N[C@@H](CCC(N)=O)C(=O)N[C@H](C(=O)O)C(C)C)NC(=O)[C@@H]2CCCN2C(=O)[C@H](CCCNC(=N)N)NC(=O)[C@H](Cc2ccc(O)cc2)NC(=O)[C@H](C(C)C)NC(=O)[C@H](CCCNC(=N)N)NC(=O)CNC(=O)[C@H](C(C)C)NC1=O [[Gln^16]--GH--RH] (H-DTMRCMVGRVYRPCWQV-OH; disulfide 5-14)
- increase of GH concentration in plasma compared with the control group (Male Wistar rats; FIG. 9): evident increase of GH concentration in plasma was observed from 30 to 60 minutes after injection
- GH Concentration, individual rats (Male Wistar rats; 15 min after injection): 10.04 μIU/ml. and 9.76 μIU/ml. and 7.20 μIU/ml. and 11.52 μIU/ml. and 7.64 μIU/ml. and 8.08 μIU/ml.
- GH Concentration, individual rats (Male Wistar rats; 30 min after injection): 9.80 μIU/ml. and 7.72 μIU/ml. and 34.84 μIU/ml. and 8.36 μIU/ml. and 30.68 μIU/ml. and 57.80 μIU/ml.
- GH Concentration, individual rats (Male Wistar rats; 60 min after injection): 56.52 μIU/ml. and 47.00 μIU/ml. and 63.40 μIU/ml. and 115.36 μIU/ml. and 21.48 μIU/ml. and 44.88 μIU/ml.
- GH Concentration, individual rats (Male Wistar rats; 120 min after injection): 22.48 μIU/ml. and 29.32 μIU/ml. and 23.56 μIU/ml. and 18.08 μIU/ml. and 13.24 μIU/ml. and 11.52 μIU/ml.
- GH Concentration, individual rats (Male Wistar rats; 180 min after injection): 10.08 μIU/ml. and 9.72 μIU/ml. and 10.56 μIU/ml. and 10.24 μIU/ml. and 9.48 μIU/ml. and 8.20 μIU/ml.
- GH Concentration, individual rats (Male Wistar rats; 240 min after injection): 25.84 μIU/ml. and 8.36 μIU/ml. and 30.00 μIU/ml. and 36.48 μIU/ml. and 7.80 μIU/ml. and 11.52 μIU/ml.
- GH Concentration, individual rats (Male Wistar rats; 300 min after injection): 12.36 μIU/ml. and 12.08 μIU/ml. and 10.32 μIU/ml. and 16.64 μIU/ml. and 12.96 μIU/ml. and 10.76 μIU/ml.
- GH Concentration, individual rats (Male Wistar rats; -15 min (before injection)): 10.52 μIU/ml. and 9.36 μIU/ml. and 8.56 μIU/ml. and 6.32 μIU/ml. and 7.20 μIU/ml. and 8.96 μIU/ml.
- GH Concentration Mean ± S.E. (Male Wistar rats; 15 min after injection): 9.04 ± 0.68 μIU/ml.
- GH Concentration Mean ± S.E. (Male Wistar rats; 30 min after injection): 24.87 ± 8.19 μIU/ml.
- GH Concentration Mean ± S.E. (Male Wistar rats; 60 min after injection): 58.11 ± 12.84 μIU/ml.
- GH Concentration Mean ± S.E. (Male Wistar rats; 120 min after injection): 19.70 ± 2.75 μIU/ml.
- GH Concentration Mean ± S.E. (Male Wistar rats; 180 min after injection): 9.71 ± 0.34 μIU/ml.
- GH Concentration Mean ± S.E. (Male Wistar rats; 240 min after injection): 20.00 ± 5.04 μIU/ml.
- GH Concentration Mean ± S.E. (Male Wistar rats; 300 min after injection): 12.52 ± 0.92 μIU/ml.
- GH Concentration Mean ± S.E. (Male Wistar rats; -15 min (before injection)): 8.49 ± 0.62 μIU/ml.
- GH-releasing effect (Male Wistar rats; rats in vivo): has a GH-releasing effect

Compound: thyrotropic releasing hormone [TRH]
- Amount of Released Rat GH ([2]; 1 ml. of 2 μg./ml. solution on the column, RIA with anti-rat GH antibody): 300 ng/mL
- releasing manner of GH ([2]; elution profile of released GH): broad
